pIC50: −log10 of the molar value.

One data set addresses T1, ASGPR (Mus musculus, UniProt P24721+P34927).
T1 construct: host or cells: murine hepatocytes (purchased, plated in 24-well plates)
T1 sequence (P34927 1-284): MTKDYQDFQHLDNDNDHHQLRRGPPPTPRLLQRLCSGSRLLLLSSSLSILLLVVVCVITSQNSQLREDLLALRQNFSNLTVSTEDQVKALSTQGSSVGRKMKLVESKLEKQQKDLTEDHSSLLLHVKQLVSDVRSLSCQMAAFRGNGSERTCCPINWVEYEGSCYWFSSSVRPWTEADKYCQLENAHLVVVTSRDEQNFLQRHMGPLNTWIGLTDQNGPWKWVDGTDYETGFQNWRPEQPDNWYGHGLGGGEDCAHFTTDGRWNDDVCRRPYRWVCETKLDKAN
T1 sequence (P24721 1-301): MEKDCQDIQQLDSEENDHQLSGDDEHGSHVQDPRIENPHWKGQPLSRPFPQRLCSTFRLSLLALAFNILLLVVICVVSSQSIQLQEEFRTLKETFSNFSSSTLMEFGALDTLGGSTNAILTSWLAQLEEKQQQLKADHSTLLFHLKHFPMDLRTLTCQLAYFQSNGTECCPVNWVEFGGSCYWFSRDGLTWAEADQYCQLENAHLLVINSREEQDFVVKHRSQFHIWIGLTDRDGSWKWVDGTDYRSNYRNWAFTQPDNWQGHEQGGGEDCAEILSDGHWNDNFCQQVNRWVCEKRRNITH
The experiment in a line: Competition with Eu-ASOR for binding to murine hepatocyte (time-resolved fluorescence). How it is done:
The murine hepatocyte (from Lonza Biotechnology Company, Maryland) is plated in a 24-well plate in advance, and the reaction occurs in each well, into which (i) Eu-ASOR 10 nM (ii) hepatocyte basic medium with 5 mM calcium chloride, and (iii) five different concentrations of saccharide chain peptide of 1 uM-0.8 nM are added. After culturing with shaking for 1 hr, the substance that has not been bound to hepatocyte is removed by washing with the hepatocyte basic medium containing calcium chloride.
Time-resolved fluorescence spectroscopy is preformed, that is, an enhancement solution (15 uM β-naphthoyl trifluoroacetone, 50 uM tri-n-octyl-phosphine oxide, 0.1% triton X-100 in 0.1M acetic acid, titrated with potassium hydrogen phthalate to pH 3.2) is added. The enhancement solution reacts with Eu^3+ to form a Eu chelate, which can emit a light of 615 nm when being excited at 340 nm. With the logarithm of the concentration of saccharide chain peptide as X axis, the emitted fluorescence value as Y axis, the fluorescence value without adding glycopeptide being set as 100%, the IC50 of each saccharide chain peptide can be calculated accordingly.

Data set [1] concerns normal rat cells (Clone 9). The experiment in a line: MTT cell toxicity test, Clone 9. Type of data set: cell-based. The conditions noted are these: Clone 9, concentration 10^3 times of 0.01 μM, 24 hr, 48 hr. How it is done:
(§1) MTT, i.e. 3-(4,5-cimethyl-thiazol-2-yl)-2,5-diphenyl tetrazolium bromide, can be metabolized by succinate dehydrogenase of cell mitochondria into blue MTT formazan, and thus is widely used to detect cell viability. The experimental method includes: adding 0, 0.001 μM, 0.01 μM, 0.1 μM, 1 μM, and 10 μM hexa-lactoside into 1×10^6 normal rat cells (Clone 9) and normal mouse cells (FL83B), respectively; after culturing for 24 hr, 48 hr, adding MTT; and 4 hr later, dissolving the cells with DMSO. The blue MTT formazan is soluble in the solution. The absorption of the solution at 570 nm is detected. With the absorption at 570 nm without adding hexa-lactoside as 100% of cell viability, the experimental groups with hexa-lactoside added are compared with the normal group without adding hexa-lactoside, to get the cell viability of the experimental groups. FIG. 10 is a comparison of cell viability of hexa-lactoside in normal rat cell (Clone 9), and FIG. 11 is a comparison of cell viability of hexa-lactoside in normal mouse cell (FL83B), in which the concentration used presently is 0.01 μM.
On the technique in general: Tetrazolium dyes change colour on reduction, which living cells bring about.

Data set [2] concerns normal mouse cells (FL83B). As to the kind of experiment: MTT cell toxicity test, FL83B. The note with it: concentration 10^3 times of 0.01 μM, 24 hr, 48 hr. It is filed as cell-based. The procedure:
as §1

Consider `CC(=O)N[C@H]1[C@H](OCCCCCCNC(=O)CNC(=O)CN(CC(=O)NCC(=O)NCCCCCCO[C@@H]2O[C@H](CO)[C@H](O)[C@H](O)[C@H]2NC(C)=O)[C@@H](CCCCN)C(=O)NCC(=O)NCCCCCCO[C@@H]2O[C@H](CO)[C@H](O)[C@H](O)[C@H]2NC(C)=O)O[C@H](CO)[C@H](O)[C@@H]1O` [DCM-Lys(GahGalNAc)3, DCM-Lys(Gah-GalNAc)3], for which the “binding to ASGPR relative to YEE or YDD” value at ASGPR (compared with YEE or YDD) is reported as 10 times.

Take `NCCCCCC(=O)N[C@@H](CC(=O)NCCCC[C@@H](C(=O)NCCCCCCOC1O[C@H](CO)[C@@H](O[C@@H]2O[C@H](CO)[C@H](O)[C@H](O)[C@H]2O)[C@H](O)[C@H]1O)N(CC(=O)NCCCCCCOC1O[C@H](CO)[C@@H](O[C@@H]2O[C@H](CO)[C@H](O)[C@H](O)[C@H]2O)[C@H](O)[C@H]1O)CC(=O)NCCCCCCOC1O[C@H](CO)[C@@H](O[C@@H]2O[C@H](CO)[C@H](O)[C@H](O)[C@H]2O)[C@H](O)[C@H]1O)C(=O)NCCCC[C@@H](C(=O)NCCCCCCOC1O[C@H](CO)[C@@H](O[C@@H]2O[C@H](CO)[C@H](O)[C@H](O)[C@H]2O)[C@H](O)[C@H]1O)N(CC(=O)NCCCCCCOC1O[C@H](CO)[C@@H](O[C@@H]2O[C@H](CO)[C@H](O)[C@H](O)[C@H]2O)[C@H](O)[C@H]1O)CC(=O)NCCCCCCOC1O[C@H](CO)[C@@H](O[C@@H]2O[C@H](CO)[C@H](O)[C@H](O)[C@H]2O)[C@H](O)[C@H]1O` (stereo partly shown) [AHA-Asp[DCM-Lys(ahLac)3]2, AHA-Asp[DCM-Lys(ah-Lac)3]2]: the “cell viability (MTT)” value in data set [1] and in data set [2] was 100% in each case.

As usually defined, the pIC50 is −log10 of the IC50, conventionally taken in molar units. Lower therefore signals a large IC50. On to `CC(=O)N[C@H]1[C@H](OCCCCCCNC(=O)CNC(=O)C[C@H](NC(=O)[C@H](CC(=O)NCC(=O)NCCCCCCO[C@@H]2O[C@H](CO)[C@H](O)[C@H](O)[C@H]2NC(C)=O)NC(=O)[C@@H](N)Cc2ccc(O)cc2)C(=O)NCC(=O)NCCCCCCO[C@@H]2O[C@H](CO)[C@H](O)[C@H](O)[C@H]2NC(C)=O)O[C@H](CO)[C@H](O)[C@@H]1O` [YDD(GahGalNAc)3, reference compound], for which the pIC50 on ASGPR was 8.00.

The values above are taken from patent US9409939B2, “Quantification method for remaining liver function and novel liver receptor imaging agent” (INSTITUTE OF NUCLEAR ENERGY RESEARCH ATOMIC ENERGY COUNCIL, …, priority 2009, dated 2016).
